US8258145B2, “Method of treating brain cancer” (Myrexis, Inc., priority 2005, dated 2012)

Each compound was assayed on T-47D (assay: Caspase cascade activation (caspase activity ratio and potency), fluorogenic N-(Ac-DEVD)-N'-ethoxycarbonyl-R110 substrate). Details: Homo sapiens, T47D; T-47D (24 hr).
Assay type: cell-based, Human
Protocol: Human breast cancer cell lines T-47D and DLD-1 were grown according to media component mixtures designated by American Type Culture Collection+10% FCS (Invitrogen Corporation), in a 5% CO2−95% humidity incubator at 37° C. T-47D and DLD-1 cells were maintained at a cell density between 50 and 80% confluency at a cell density of 0.1 to 0.6×10^6 cells/mL. Cells were harvested at 600×g and resuspended at 0.65×10^6 cells/mL into appropriate media+10% FCS. An aliquot of 22.5 μL of cells was added to a well of a 384-well microtiter plate containing 2.5 μL of a 10% DMSO in RPMI-1640 media solution containing 0.16 to 100 μM of (2-chloro-quinazolin-4-yl)-(4-methoxy-phenyl)-methyl-amine or other test compound (0.016 to 10 μM final). An aliquot of 22.5 μL of cells was added to a well of a 384-well microtiter plate containing 2.5 μL of a 10% DMSO in RPMI-1640 media solution without test compound as the control sample. […] […] The samples were mixed by agitation and incubated at room temperature. Using a fluorescent plate reader (Model SPECTRAfluor Plus, Tecan), an initial reading (T=0) was made approximately 1-2 min after addition of the substrate solution, employing excitation at 485 nm and emission at 530 nm, to determine the background fluorescence of the control sample. After the 3 h incubation, the samples were read for fluorescence as above (T=3 h).
The Relative Fluorescence Unit values (RFU) were used to calculate the sample readings as follows: RFU(T=3h)−Control RFU(T=0)=Net RFU(T=3h)
The activity of caspase cascade activation was determined by the ratio of the net RFU value for (2-chloro-quinazolin-4-yl)-(4-methoxy-phenyl)-methyl-amine or other test compounds to that of control samples. The EC50 (nM) was determined by a sigmoidal dose-response calculation (Prism 3.0, GraphPad Software Inc.).
For CNc1nc(N(C)c2ccc(N(C)C)cc2)c2ccccc2n1 [Example 47, (2-Methylamino-quinazolin-4-yl)-(4-dimethylaminophenyl)-methylamine], the EC50 was 29 nM.

Same assay, conditions: T-47D (24 hr)
With Cc1ccc(N(C)c2nc(Cl)nc3ccccc23)cc1 [Example 2, (2-Chloro-quinazolin-4-yl)-(4-methyl-phenyl)-methyl-amine] the “Caspase activity Ratio (net RFU of test compound to control)” value (“Caspase activity Ratio” below) was 6.7.
CN(c1ccc(Cl)cc1)c1nc(Cl)nc2ccccc12 [Example 3, (2-Chloro-quinazolin-4-yl)-(4-chloro-phenyl)-methyl-amine] was tested, and the “Caspase activity Ratio” value was 8.1.
In the case of CN(c1ccc(OC(F)(F)F)cc1)c1nc(Cl)nc2ccccc12 [Example 4, (2-Chloro-quinazolin-4-yl)-(4-trifluoromethoxy-phenyl)-methyl-amine], the “Caspase activity Ratio” value is reported as 10.3.
COc1ccc(N(C)c2nc(N3CCOCC3)nc3ccccc23)cc1 [Example 6, (4-Methoxy-phenyl)-methyl-(2-morpholin-4-yl-quinazolin-4-yl)-amine] was tested, and the “Caspase activity Ratio” value was 5.7.
COc1ccc(N(C)c2nc(Cl)nc3ccccc23)cn1 [Example 7, (2-Chloro-quinazolin-4-yl)-(6-methoxy-pyridin-3-yl)-methyl-amine] was tested, and the “Caspase activity Ratio” value was 6.7.
With COc1ccc(N(C)c2nc(CCl)nc3ccccc23)cc1 [Example 22, (2-Chloromethyl-quinazolin-4-yl)-(4-methoxy-phenyl)-methyl-amine] the “Caspase activity Ratio” value was 6.2.
For COc1cccc(N(C)c2nc(Cl)nc3ccccc23)c1OC [Example 24, (2-Chloro-quinazolin-4-yl)-(2,3-dimethoxy-phenyl)-methyl-amine], the “Caspase activity Ratio” value was 4.5.
In the case of Cc1nc(N(C)c2ccc(OC(F)F)cc2)c2ccccc2n1 [Example 25, (4-Difluoromethoxy-phenyl)-(2-methyl-quinazolin-4-yl)-methyl-amine], the “Caspase activity Ratio” value is reported as 6.7.
COc1ccc(N(C)c2nc(C)nc3ccccc23)cc1F [Example 26, (3-Fluoro-4-methoxy-phenyl)-(2-methyl-quinazolin-4-yl)-methyl-amine] was tested, and the “Caspase activity Ratio” value was 7.6.
For Cc1nc(N(C)c2ccc(OC(C)C)cc2)c2ccccc2n1 [Example 27, (4-Isopropoxy-phenyl)-(2-methyl-quinazolin-4-yl)-methyl-amine], the “Caspase activity Ratio” value was 6.2.
For CCc1ccc(N(C)c2nc(C)nc3ccccc23)cc1 [Example 28, (4-Ethyl-phenyl)-(2-methyl-quinazolin-4-yl)-methyl-amine], the “Caspase activity Ratio” value was 6.3.
For COc1ccc(N(C)c2nc(Cl)nc3cccc(Cl)c23)cc1 [Example 30, (2,5-Dichloro-quinazolin-4-yl)-(4-methoxy-phenyl)-methyl-amine], the “Caspase activity Ratio” value was 10.6.
For COc1ccc(N(C)c2nc(C)nc3cccc(OC)c23)cc1 [Example 31, (5-Methoxy-2-methyl-quinazolin-4-yl)-(4-methoxy-phenyl)-methyl-amine], the “Caspase activity Ratio” value was 8.3.
COc1ccc(N(C)c2nc(C)nc3ccccc23)c(F)c1 [Example 34, (2-Fluoro-4-methoxy-phenyl)-(2-methyl-quinazolin-4-yl)-methyl-amine] was tested, and the “Caspase activity Ratio” value was 6.9.
For CCOc1ccc(N(C)c2nc(C)nc3ccccc23)cc1 [Example 36, (4-Ethoxy-phenyl)-(2-methyl-quinazolin-4-yl)-methyl-amine], the “Caspase activity Ratio” value was 5.2.
COc1ccc(N(C)c2nc(SC)nc3ccccc23)cc1 [Example 37, (2-Methylthio-quinazolin-4-yl)-(4-methoxy-phenyl)-methyl-amine] was tested, and the “Caspase activity Ratio” value was 5.2.
With COc1ccc(N(C)c2nc(N(C)C)nc3ccccc23)cc1 [Example 38, (2-Dimethylamino-quinazolin-4-yl)-(4-methoxy-phenyl)-methyl-amine] the “Caspase activity Ratio” value was 8.2.
In the case of COc1ccc(N(C)c2nc(C)nc3ccccc23)nc1 [Example 41, (5-Methoxy-pyridin-2-yl)-(2-methyl-quinazolin-4-yl)-methyl-amine], the “Caspase activity Ratio” value is reported as 5.0.
COc1ccc(N(C)c2nc(NCc3ccccc3)nc3ccccc23)cc1 [Example 42, (2-Benzylamino-quinazolin-4-yl)-(4-methoxyphenyl)-methylamine] was tested, and the “Caspase activity Ratio” value was 8.2.
Cc1nc(N(C)c2ccc(N(C)C)cc2)c2cc([N+](=O)[O-])ccc2n1 [Example 44, (2-Methyl-6-nitroquinazolin-4-yl)-(4-dimethylaminophenyl)-methylamine] was tested, and the “Caspase activity Ratio” value was 2.6.
CN(C)c1ccc(N(C)c2nc(Cl)nc3ccccc23)cc1 [Example 45, (2-Chloro-quinazolin-4-yl)-(4-dimethylaminophenyl)-methylamine] was tested, and the “Caspase activity Ratio” value was 4.2.
For COc1ccc(N(C)c2nc(N(C)C)nc3ccc([N+](=O)[O-])cc23)cc1 [Example 46, (2-Dimethylamino-6-nitroquinazolin-4-yl)-(4-methoxyphenyl)-methylamine], the “Caspase activity Ratio” value was 4.2.
For CNc1nc(N(C)c2ccc(N(C)C)cc2)c2ccccc2n1 [Example 47, (2-Methylamino-quinazolin-4-yl)-(4-dimethylaminophenyl)-methylamine], the “Caspase activity Ratio” value was 3.9.

Same assay, conditions: T-47D (48 hr)
For COc1ccc(N(C)c2nc(NO)nc3ccccc23)cc1 [Example 5, N^2-Hydroxyl-N^4-(4-methoxy-phenyl)-N^4-methyl-quinazoline-2,4-diamine], the “Caspase activity Ratio” value was 12.8.
With COc1ccc(N(C)c2nc(N3CCOCC3)nc3ccccc23)cc1 [Example 6, (4-Methoxy-phenyl)-methyl-(2-morpholin-4-yl-quinazolin-4-yl)-amine] the “Caspase activity Ratio” value was 11.5.
CCN(c1ccc(OC)cc1)c1nc(Cl)nc2ccccc12 [Example 8, (2-Chloro-quinazolin-4-yl)-ethyl-(4-methoxy-phenyl)-amine] was tested, and the “Caspase activity Ratio” value was 6.1.
In the case of COc1ccc(N(C)c2nc(Cl)nc3ccccc23)c(OC)c1 [Example 9, (2-Chloro-quinazolin-4-yl)-(2,4-dimethoxy-phenyl)-methyl-amine], the “Caspase activity Ratio” value is reported as 12.4.
In the case of COc1cccc(N(C)c2nc(Cl)nc3ccccc23)c1 [Example 10, (2-Chloro-quinazolin-4-yl)-(3-methoxy-phenyl)-methyl-amine], the “Caspase activity Ratio” value is reported as 14.7.
COc1ccc(N(C)c2nc(CF)nc3ccccc23)cc1 [Example 12, (2-Fluoromethyl-quinazolin-4-yl)-(4-methoxy-phenyl)-methyl-amine] was tested, and the “Caspase activity Ratio” value was 9.0.
With COc1ccc(N(C)c2nc(Cl)nc3ccc(C)cc23)cc1 [Example 13, (2-Chloro-6-methyl-quinazolin-4-yl)-(4-methoxy-phenyl)-methyl-amine] the “Caspase activity Ratio” value was 4.9.
COc1ccc(N(C)c2nc(Cl)nc3cccc(C)c23)cc1 [Example 14, (2-Chloro-5-methyl-quinazolin-4-yl)-(4-methoxy-phenyl)-methyl-amine] was tested, and the “Caspase activity Ratio” value was 10.8.
For COc1ccc(N(C)c2nc(Cl)nc3c(C)cccc23)cc1 [Example 15, (2-Chloro-8-methyl-quinazolin-4-yl)-(4-methoxy-phenyl)-methyl-amine], the “Caspase activity Ratio” value was 7.1.
With COc1ccc(N(C)c2nc(Cl)nc3ccc(Cl)cc23)cc1 [Example 16, (2,6-Dichloro-quinazolin-4-yl)-(4-methoxy-phenyl)-methyl-amine] the “Caspase activity Ratio” value was 6.5.
For CN(c1ccc2c(c1)OCO2)c1nc(Cl)nc2ccccc12 [Example 18, (2-Chloro-quinazolin-4-yl)-(3,4-methylenedioxyphenyl)-methyl-amine], the “Caspase activity Ratio” value was 12.5.
COc1ccc(N(C)c2nc(Cl)nc3ccccc23)cc1OC [Example 19, (2-Chloro-quinazolin-4-yl)-(3,4-dimethoxy-phenyl)-methyl-amine] was tested, and the “Caspase activity Ratio” value was 13.1.
With CCCOc1ccc(N(C)c2nc(Cl)nc3ccccc23)cc1 [Example 20, (2-Chloro-quinazolin-4-yl)-(4-propoxy-phenyl)-methyl-amine] the “Caspase activity Ratio” value was 11.3.
In the case of COc1ccc(N(C)c2nc(CCl)nc3ccccc23)cc1 [Example 22, (2-Chloromethyl-quinazolin-4-yl)-(4-methoxy-phenyl)-methyl-amine], the “Caspase activity Ratio” value is reported as 5.7.
For COc1ccc(N(C)c2nc(Cl)nc3c(Cl)cccc23)cc1 [Example 29, (2,8-Dichloro-quinazolin-4-yl)-(4-methoxy-phenyl)-methyl-amine], the “Caspase activity Ratio” value was 7.8.
CCOc1ccc(N(C)c2nc(Cl)nc3ccccc23)cc1 [Example 32, (2-Chloro-quinazolin-4-yl)-(4-ethoxy-phenyl)-methylamine] was tested, and the “Caspase activity Ratio” value was 9.0.
